Assay results taken from the supplement of paper PMC10307832.

How the values were obtained:
Experiment in all cases: relative viability (nuclei count vs DMSO), 5 days (fraction); higher = more cells survive
Sunitinib + AZD7762 = compound: CCN(CC)CCNC(=O)c1c(C)[nH]c(/C=C2\C(=O)Nc3ccc(F)cc32)c1C [Sunitinib] + NC(=O)Nc1cc(-c2cccc(F)c2)sc1C(=O)N[C@H]1CCCNC1 [AZD7762] (partner 0.2 µM)
In short: (§1)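 Lung cancer cell lines were seeded in 1536-well plates and dosed by pin tool the next day, with either a single drug or a fixed anchor-drug dose combined with five library-drug doses (not always all listed) spaced in √10 steps. Five days later, one step fixed the cells and stained their nuclei (final 0.05% Triton X-100, 1% formaldehyde, 1 ug/ml Hoechst), and nuclei were counted on 4× images. Relative viability is the nuclei count in treated wells divided by the count in vehicle wells, and each value is the median of duplicate plates.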

Sunitinib + Alpelisib = compound: CCN(CC)CCNC(=O)c1c(C)[nH]c(/C=C2\C(=O)Nc3ccc(F)cc32)c1C [Sunitinib] + Cc1nc(NC(=O)N2CCC[C@H]2C(N)=O)sc1-c1ccnc(C(C)(C)C(F)(F)F)c1 [Alpelisib] (partner 2 µM)
In short: as §1

Sunitinib + Phenformin = compound: CCN(CC)CCNC(=O)c1c(C)[nH]c(/C=C2\C(=O)Nc3ccc(F)cc32)c1C [Sunitinib] + N=C(N)NC(=N)NCCc1ccccc1 [Phenformin] (partner 250 µM)
In short: as §1

Sunitinib + Pictilisib = compound: CCN(CC)CCNC(=O)c1c(C)[nH]c(/C=C2\C(=O)Nc3ccc(F)cc32)c1C [Sunitinib] + CS(=O)(=O)N1CCN(Cc2cc3nc(-c4cccc5[nH]ncc45)nc(N4CCOCC4)c3s2)CC1 [Pictilisib] (partner 1 µM)
In short: as §1

Cell Line	relative viability (Sunitinib + AZD7762; first compound 0.02 µM)	relative viability (Sunitinib + AZD7762; first compound 0.06325 µM)	relative viability (Sunitinib + AZD7762; first compound 0.2 µM)	relative viability (Sunitinib + AZD7762; first compound 0.6325 µM)	relative viability (Sunitinib + AZD7762; first compound 2 µM)	relative viability (Sunitinib + Alpelisib; first compound 0.02 µM)	relative viability (Sunitinib + Alpelisib; first compound 0.06325 µM)	relative viability (Sunitinib + Alpelisib; first compound 0.2 µM)	relative viability (Sunitinib + Alpelisib; first compound 0.6325 µM)	relative viability (Sunitinib + Alpelisib; first compound 2 µM)	relative viability (Sunitinib + Phenformin; first compound 0.02 µM)	relative viability (Sunitinib + Phenformin; first compound 0.06325 µM)	relative viability (Sunitinib + Phenformin; first compound 0.2 µM)	relative viability (Sunitinib + Phenformin; first compound 0.6325 µM)	relative viability (Sunitinib + Phenformin; first compound 2 µM)	relative viability (Sunitinib + Pictilisib; first compound 0.02 µM)	relative viability (Sunitinib + Pictilisib; first compound 0.06325 µM)	relative viability (Sunitinib + Pictilisib; first compound 0.2 µM)	relative viability (Sunitinib + Pictilisib; first compound 0.6325 µM)	relative viability (Sunitinib + Pictilisib; first compound 2 µM)
HCC-366	0.241	0.207	0.379	0.238	0.216	0.353	0.466	0.656	0.528	0.431	0.559	0.624	0.644	0.599	0.544	0.0687	0.181	0.128	0.175	0.137
HCC-827	0.249	0.191	0.21	0.174	0.207	1.02	1.04	1.01	1.04	0.887	0.366	0.401	0.439	0.403	0.291	1.01	1.09	1.11	1.11	1.13
HOP-62	0.579	0.675	0.874	0.688	0.85	0.964	0.851	1.04	1.05	0.919	0.614	0.713	0.745	0.661	0.698	0.66	1.08	0.745	0.696	0.724
LC-2-ad	0.796	0.889	0.983	0.844	0.873	0.897	0.613		0.891	0.605	0.526	0.574	0.643	0.61	0.573	0.51	0.461	0.444	0.285	0.28
LCLC-97TM1	0.265	0.163	0.234	0.224	0.288	0.24	0.351		0.276	0.286	0.463	0.438	0.442	0.406	0.426	0.199	0.261		0.213	0.233
LCLC-103H	0.808	0.786	0.89	0.925	0.851	0.822	0.945	0.993	0.958	0.959	0.354	0.343	0.352	0.365	0.33	0.558	0.649	0.643	0.614	0.536
LK-2	0.35	0.571	0.352	0.414	0.443	0.942	0.906	1.28	1.18	0.916	0.224	0.427	0.406	0.494	0.249	0.505	0.543	0.558	0.573	0.465
NCI-H520						1.01	0.841	0.867		0.729	0.674	0.685	0.471	0.661	0.424	0.244	0.32	0.348	0.278	0.273
NCI-H661						0.597	0.547	0.515	0.582	0.759	0.263	0.31	0.27	0.264	0.265	0.385	0.362	0.368	0.319	0.441
NCI-H1299						1.02		1.06	1.08	1.06						0.748	0.654	0.862		0.558
NCI-H1563						0.984	0.952	0.884	0.93	0.965	0.661	0.707	0.738		0.706	0.637	0.641	0.695	0.653	0.643
NCI-H1648	0.702	0.814	0.694	0.715	0.828															
NCI-H1650											0.384	0.492	0.382	0.533	0.371	0.535	0.559	0.545	0.681	0.536
NCI-H1703	0.136	0.146	0.127	0.138	0.122	0.211	0.161	0.199	0.154	0.188						0.215	0.208	0.245	0.224	0.204
NCI-H2009						1.18	1.2	1.27	1.19	1.12	0.446	0.501	0.461	0.465	0.429	0.748	0.791	0.842	0.876	0.758
NCI-H2023						0.638	0.584	0.697	0.64	0.516	0.391	0.446	0.519	0.459	0.385	0.205	0.265	0.26	0.269	0.23
NCI-H2228						0.735	0.729	1	0.717	0.538	0.332	0.405	0.315	0.341	0.322	0.536	0.445	0.299	0.454	0.216
NCI-H2342	0.48	0.601	0.649	0.505	0.556						0.523	0.571	0.62	0.542	0.727					
SK-LU-1						0.863	1.25	1.12	1.09	0.669	0.46	0.63	0.586	0.523	0.409	0.538	0.66	0.603	0.53	0.483
SK-MES-1						0.885	1.02	0.86	1.02	0.927	0.619	0.665	0.689	0.655	0.52	0.352	0.382	0.344	0.316	0.359
SW 1573						0.715	0.827	0.932	0.84	0.784	0.338	0.449	0.368	0.386	0.306	0.511	0.438	0.591	0.555	0.458
UMC-11						0.945	1.03	0.892	0.929	0.912	0.331	0.352	0.355	0.324	0.309	0.793	0.883	0.968	0.814	0.866
